ChEMBL document CHEMBL4414548 (J Med Chem, 2019)
Activity calls are given as the source filed them. The rule behind the calls is not given here.

Assays:
[1] = Metabolic stability in pooled human liver microsomes at 0.5 uM after 10 mins by UV based analysis; format: ADME, Microsome; details: read-out: Stability
JAK3/JAK1 = JAK3/JAK1 (Homo sapiens, UniProt P23458+P52333); assay: Inhibition of JAK1/JAK3 (unknown origin) in IL-2 stimulated cells by cell based assay
[2] = molecular target: T1, Inhibitor of nuclear factor kappa-B kinase subunit beta (Homo sapiens) (UniProt O14920); assay: Inhibition of IKKbeta (unknown origin)
T1 sequence (whole entry): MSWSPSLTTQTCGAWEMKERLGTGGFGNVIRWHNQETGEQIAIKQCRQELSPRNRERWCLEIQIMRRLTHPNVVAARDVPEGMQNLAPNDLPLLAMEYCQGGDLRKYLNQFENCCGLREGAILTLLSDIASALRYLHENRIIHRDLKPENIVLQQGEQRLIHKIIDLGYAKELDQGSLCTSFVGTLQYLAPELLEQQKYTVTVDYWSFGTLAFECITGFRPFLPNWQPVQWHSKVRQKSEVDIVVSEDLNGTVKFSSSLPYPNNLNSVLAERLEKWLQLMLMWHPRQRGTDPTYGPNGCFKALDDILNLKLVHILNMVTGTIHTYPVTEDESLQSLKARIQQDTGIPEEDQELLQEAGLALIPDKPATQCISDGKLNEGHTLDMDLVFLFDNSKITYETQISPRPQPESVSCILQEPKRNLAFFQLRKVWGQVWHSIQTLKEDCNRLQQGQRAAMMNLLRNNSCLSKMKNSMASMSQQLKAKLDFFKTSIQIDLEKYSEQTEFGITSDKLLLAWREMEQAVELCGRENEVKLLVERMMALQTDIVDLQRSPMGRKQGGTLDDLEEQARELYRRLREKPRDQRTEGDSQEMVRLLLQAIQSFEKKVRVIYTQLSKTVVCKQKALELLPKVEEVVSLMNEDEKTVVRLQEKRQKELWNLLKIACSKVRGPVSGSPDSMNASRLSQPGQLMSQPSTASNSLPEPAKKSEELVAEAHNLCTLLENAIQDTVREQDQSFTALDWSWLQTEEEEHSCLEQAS

[3] = molecular target: T2, Non-receptor tyrosine-protein kinase TYK2 (Homo sapiens, UniProt P29597); assay: Inhibition of fluorescein-labeled kinase tracer binding to His-TVMV-fused TYK2 JH2 domain (575 to 869 residues) (unknown origin) measured after 90 mins by HTRF assay
JAK2/JAK1 = JAK2/JAK1 (Homo sapiens, UniProt O60674+P23458); assay: Inhibition of JAK1/JAK2 (unknown origin) in GM-CSF stimulated cells by cell based assay
[4] = Metabolic stability in pooled mouse liver microsomes at 0.5 uM after 10 mins by UV based analysis; format: ADME, Microsome; details: read-out: Stability
[5] = molecular target: Tyrosine-protein kinase JAK1 (Homo sapiens, UniProt P23458); assay: Inhibition of JAK1 JH1 domain (unknown origin)
[6] = molecular target: T2, Non-receptor tyrosine-protein kinase TYK2; assay: Inhibition of TYK2 JH2 (unknown origin) by morrison titration assay; details: read-out: Ki(app)
[7] = molecular target: T2, Non-receptor tyrosine-protein kinase TYK2; assay: Inhibition of TYK2 JH2 (unknown origin) by Scintillation proximity assay
JAK2/TYK2 = JAK2/TYK2 (Homo sapiens, UniProt O60674+P29597); assay: Inhibition of TYK2/JAK2 in IL23-stimulated human Kit225 cells by steady-glo luciferase assay
JAK1/TYK2 = JAK1/TYK2 (Homo sapiens, UniProt P23458+P29597); assay: Inhibition of TYK2/JAK1 in IFNalpha-stimulated human Kit225 cells by steady-glo luciferase assay
[8] = molecular target: Tyrosine-protein kinase JAK2 (Homo sapiens, UniProt O60674); assay: Inhibition of JAK2 JH1 domain (unknown origin)
[9] = molecular target: T2, Non-receptor tyrosine-protein kinase TYK2; assay: Inhibition of TYK2 JH1 domain (unknown origin)

T2 sequence (P29597 whole entry, the tested form may be a part): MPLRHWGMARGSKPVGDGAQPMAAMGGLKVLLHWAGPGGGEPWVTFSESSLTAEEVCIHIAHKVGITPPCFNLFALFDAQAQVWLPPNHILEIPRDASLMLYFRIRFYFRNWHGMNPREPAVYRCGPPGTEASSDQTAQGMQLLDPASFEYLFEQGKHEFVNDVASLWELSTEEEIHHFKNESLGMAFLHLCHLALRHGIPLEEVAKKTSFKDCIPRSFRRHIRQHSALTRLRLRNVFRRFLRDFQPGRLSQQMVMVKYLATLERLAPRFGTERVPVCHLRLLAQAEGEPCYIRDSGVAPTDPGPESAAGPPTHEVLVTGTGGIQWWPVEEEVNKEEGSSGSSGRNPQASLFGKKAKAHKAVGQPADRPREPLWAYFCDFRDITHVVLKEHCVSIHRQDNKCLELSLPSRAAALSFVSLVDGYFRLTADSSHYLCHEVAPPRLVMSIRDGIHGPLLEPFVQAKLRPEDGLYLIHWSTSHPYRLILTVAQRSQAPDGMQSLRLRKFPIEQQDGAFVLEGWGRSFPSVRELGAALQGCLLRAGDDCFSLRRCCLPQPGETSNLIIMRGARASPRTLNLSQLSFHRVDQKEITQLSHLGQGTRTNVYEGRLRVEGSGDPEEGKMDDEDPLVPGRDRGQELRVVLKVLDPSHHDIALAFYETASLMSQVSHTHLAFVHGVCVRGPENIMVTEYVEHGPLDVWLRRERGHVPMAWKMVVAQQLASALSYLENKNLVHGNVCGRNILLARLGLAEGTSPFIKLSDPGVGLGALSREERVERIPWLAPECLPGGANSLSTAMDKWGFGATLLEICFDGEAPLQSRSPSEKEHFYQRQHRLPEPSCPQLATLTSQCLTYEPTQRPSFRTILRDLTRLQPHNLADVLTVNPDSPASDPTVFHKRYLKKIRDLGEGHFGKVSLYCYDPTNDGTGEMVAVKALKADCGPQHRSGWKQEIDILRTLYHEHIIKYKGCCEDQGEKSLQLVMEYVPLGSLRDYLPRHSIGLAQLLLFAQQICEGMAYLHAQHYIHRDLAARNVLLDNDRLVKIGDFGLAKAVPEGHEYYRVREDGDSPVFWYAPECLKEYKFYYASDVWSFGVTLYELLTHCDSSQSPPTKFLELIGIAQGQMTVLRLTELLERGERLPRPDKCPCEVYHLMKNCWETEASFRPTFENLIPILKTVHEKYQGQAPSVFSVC
Tyrosine-protein kinase JAK1, sequence (P23458 whole entry, the tested form may be a part): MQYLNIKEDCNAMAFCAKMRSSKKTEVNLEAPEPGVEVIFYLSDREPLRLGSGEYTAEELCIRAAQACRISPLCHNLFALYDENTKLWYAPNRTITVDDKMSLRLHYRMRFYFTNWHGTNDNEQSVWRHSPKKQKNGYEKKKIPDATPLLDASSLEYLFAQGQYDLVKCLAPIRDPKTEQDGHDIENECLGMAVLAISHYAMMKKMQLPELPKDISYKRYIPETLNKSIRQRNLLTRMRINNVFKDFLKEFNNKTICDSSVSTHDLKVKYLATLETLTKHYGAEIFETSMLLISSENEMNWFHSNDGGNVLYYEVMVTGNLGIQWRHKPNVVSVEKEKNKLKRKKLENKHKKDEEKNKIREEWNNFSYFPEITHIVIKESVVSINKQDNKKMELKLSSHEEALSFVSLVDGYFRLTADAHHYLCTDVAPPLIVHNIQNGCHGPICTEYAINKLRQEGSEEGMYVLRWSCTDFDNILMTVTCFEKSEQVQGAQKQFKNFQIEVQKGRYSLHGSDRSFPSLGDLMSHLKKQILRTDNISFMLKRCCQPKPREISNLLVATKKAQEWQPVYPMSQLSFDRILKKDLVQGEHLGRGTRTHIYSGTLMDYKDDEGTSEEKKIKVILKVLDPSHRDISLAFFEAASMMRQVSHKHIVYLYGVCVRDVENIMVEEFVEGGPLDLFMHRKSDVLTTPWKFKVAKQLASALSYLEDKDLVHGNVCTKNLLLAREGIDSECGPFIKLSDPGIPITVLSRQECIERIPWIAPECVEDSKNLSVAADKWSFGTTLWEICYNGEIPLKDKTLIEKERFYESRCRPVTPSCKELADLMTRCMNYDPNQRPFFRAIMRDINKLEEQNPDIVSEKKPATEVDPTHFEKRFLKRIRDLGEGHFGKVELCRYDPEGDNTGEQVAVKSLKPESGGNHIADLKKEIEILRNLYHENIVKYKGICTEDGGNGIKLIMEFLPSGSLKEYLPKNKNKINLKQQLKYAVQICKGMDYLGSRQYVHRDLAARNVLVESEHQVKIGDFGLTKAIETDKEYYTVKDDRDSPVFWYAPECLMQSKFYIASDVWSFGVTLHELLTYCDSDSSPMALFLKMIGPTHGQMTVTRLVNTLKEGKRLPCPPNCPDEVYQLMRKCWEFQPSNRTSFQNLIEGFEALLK
JAK1/TYK2, sequence (P23458 whole entry, the tested form may be a part): as above
JAK1/TYK2, sequence (P29597 whole entry, the tested form may be a part): as the sequence (P29597 whole entry, the tested form may be a part) above
JAK2/JAK1, sequence (P23458 whole entry): as the sequence (P23458 whole entry, the tested form may be a part) above
JAK2/JAK1, sequence (O60674 whole entry): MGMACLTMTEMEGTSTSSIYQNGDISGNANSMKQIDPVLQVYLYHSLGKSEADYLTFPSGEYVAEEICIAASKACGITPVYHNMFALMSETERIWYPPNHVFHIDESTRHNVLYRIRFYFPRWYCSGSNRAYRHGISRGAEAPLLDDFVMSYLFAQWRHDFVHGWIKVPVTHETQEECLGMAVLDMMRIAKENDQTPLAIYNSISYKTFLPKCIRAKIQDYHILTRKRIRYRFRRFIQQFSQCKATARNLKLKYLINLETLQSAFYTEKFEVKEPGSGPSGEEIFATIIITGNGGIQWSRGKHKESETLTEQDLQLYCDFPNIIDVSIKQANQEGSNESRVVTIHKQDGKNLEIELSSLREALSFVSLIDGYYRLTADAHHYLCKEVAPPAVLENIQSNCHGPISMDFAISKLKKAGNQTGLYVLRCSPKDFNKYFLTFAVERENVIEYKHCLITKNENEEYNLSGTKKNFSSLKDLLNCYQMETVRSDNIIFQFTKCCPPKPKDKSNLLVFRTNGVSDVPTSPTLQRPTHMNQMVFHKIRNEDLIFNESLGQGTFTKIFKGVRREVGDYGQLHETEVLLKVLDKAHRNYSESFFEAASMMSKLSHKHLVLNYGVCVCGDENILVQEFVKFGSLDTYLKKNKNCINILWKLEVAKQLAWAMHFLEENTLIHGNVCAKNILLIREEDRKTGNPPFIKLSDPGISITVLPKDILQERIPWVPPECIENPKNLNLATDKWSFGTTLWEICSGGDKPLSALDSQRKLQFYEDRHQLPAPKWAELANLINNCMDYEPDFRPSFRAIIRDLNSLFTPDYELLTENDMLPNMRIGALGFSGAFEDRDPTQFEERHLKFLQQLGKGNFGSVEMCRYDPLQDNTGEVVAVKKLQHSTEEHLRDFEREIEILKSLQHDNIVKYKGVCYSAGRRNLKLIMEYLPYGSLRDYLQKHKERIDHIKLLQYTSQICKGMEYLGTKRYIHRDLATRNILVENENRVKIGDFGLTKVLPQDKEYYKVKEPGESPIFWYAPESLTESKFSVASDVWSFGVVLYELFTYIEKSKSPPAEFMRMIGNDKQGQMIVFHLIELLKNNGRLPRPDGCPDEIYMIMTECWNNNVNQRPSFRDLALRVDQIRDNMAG
JAK3/JAK1, sequence (P52333 whole entry): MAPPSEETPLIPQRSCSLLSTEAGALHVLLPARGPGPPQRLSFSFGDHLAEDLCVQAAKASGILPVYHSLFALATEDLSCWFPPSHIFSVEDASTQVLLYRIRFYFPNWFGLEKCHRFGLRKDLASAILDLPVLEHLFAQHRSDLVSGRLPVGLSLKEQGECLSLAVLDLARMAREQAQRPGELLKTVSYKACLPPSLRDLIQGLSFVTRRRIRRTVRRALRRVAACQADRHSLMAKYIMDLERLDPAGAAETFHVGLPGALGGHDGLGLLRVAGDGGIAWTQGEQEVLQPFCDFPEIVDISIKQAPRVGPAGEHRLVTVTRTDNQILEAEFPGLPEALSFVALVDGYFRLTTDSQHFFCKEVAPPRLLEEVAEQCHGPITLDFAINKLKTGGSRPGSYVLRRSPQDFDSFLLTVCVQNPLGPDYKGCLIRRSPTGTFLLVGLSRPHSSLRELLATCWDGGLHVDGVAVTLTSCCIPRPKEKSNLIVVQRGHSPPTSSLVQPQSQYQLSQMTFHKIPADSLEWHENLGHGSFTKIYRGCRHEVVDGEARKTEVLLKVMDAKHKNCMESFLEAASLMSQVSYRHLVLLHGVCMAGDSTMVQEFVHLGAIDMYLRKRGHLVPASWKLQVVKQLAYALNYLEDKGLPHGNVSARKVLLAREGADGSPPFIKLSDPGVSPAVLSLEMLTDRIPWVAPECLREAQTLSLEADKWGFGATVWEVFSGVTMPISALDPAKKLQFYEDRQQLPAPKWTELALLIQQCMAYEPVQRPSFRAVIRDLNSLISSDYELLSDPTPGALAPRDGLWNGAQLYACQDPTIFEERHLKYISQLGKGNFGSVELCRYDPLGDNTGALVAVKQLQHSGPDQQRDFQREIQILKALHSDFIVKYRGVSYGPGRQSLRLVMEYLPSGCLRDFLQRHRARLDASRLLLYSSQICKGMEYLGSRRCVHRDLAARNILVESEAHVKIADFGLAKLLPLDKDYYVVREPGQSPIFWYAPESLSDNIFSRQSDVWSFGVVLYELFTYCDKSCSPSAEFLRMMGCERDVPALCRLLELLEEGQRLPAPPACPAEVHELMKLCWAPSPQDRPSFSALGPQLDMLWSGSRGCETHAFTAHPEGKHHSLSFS
JAK3/JAK1, sequence (P23458 whole entry): as the sequence (P23458 whole entry, the tested form may be a part) above
JAK2/TYK2, sequence (O60674 whole entry): as the sequence (O60674 whole entry) above
JAK2/TYK2, sequence (P29597 whole entry): as the sequence (P29597 whole entry, the tested form may be a part) above
Tyrosine-protein kinase JAK2, sequence (O60674 whole entry, the tested form may be a part): as the sequence (O60674 whole entry) above

remaining at 10 min, 0.5 µM [1]: > 80% | IC50 (JAK3/JAK1): 400 nM | inhibition [2]: inactive | IC50 [3]: 0.46 nM | IC50 (JAK2/JAK1): 210 nM | remaining at 10 min, 0.5 µM [4]: > 80% | IC50 [5]: 26 nM | Ki [6]: 0.06 nM | EC50 [7]: 6.6 nM | IC50 (JAK2/TYK2): 89 nM | IC50 (JAK1/TYK2): 37 nM | IC50 [8]: 24 nM | IC50 [9]: 15 nM
Compound: NC(=O)c1ccccc1Nc1cc(Nc2ccc(F)cn2)ncc1C(N)=O
